Legend:
[1] = tested on: wheat (Triticum aestivum, variety TRISO); assay: Root growth assay, seed treatment, wheat; assay type: in vivo; conditions: Root Growth of 100 is set as the standard, wet root weight 16 (±2) days post treatment
Description: (§1) Plant roots are a highly proliferative tissue that allows an easy accessible, cheap and short term screening method for plant growth regulators. The results obtained can easily be transferred to the overall effects on a plant of plant growth regulators identified by such a system. By using this root assay one is enabled to determine the effect of a seed treatment to root growth and/or germination and/or changes in habitat of germinated plants in order to identify the possible use as a yield enhancer. Two seeds of wheat (Triticum aestivum, variety “TRISO”) or 1 seed of maize (Zea mays, variety “LORENZO”) per hole in a plastic tray which contains an architecture of 8×13 holes were placed on compost soil covered with sand. These seeds were treated with 100 μl/hole, which creates an application volume of approx. 1200 l/ha, of a compound solution at active ingredient rates equivalent to 100, 10 and 1 g a.i./ha of each compound using an robotic application system (Lizzy Spray Robotics). Six replicates in a row of each compound and concentration were done. The outer rim of the above defined plastic tray was untreated to avoid false negative effects and the middle row (No. 7) was used as untreated control. The treated seeds were allowed to dry for approx. 4 hours and subsequently covered with sand and watered. The trays were stored in climate chambers with 14 hours lighting at a temperature of 24° C. (±2) at daytime and 16° C. (±2) at night and relative humidity (rH) of 60% and daily watered. Assessments were done 16 (±2) days post treatment by counting the germinated plants and assessing the phytotoxicity symptoms and percentage. In addition, the roots were washed out and the shoots were cut directly above the seed and the wet roots were placed on dry paper towels for approximately 30 minutes and weighted afterwards. This procedure provides a similar grade of moisture to the roots so that a comparison of the weights is possible.
(§2) The effects observed concerning Root Growth given in column 2 (Root Growth of “100” is set as the standard) are directed to concentrations that are equivalent to 100, 10, 1 g a.i./ha, each.

[2] = tested on: maize (Zea mays, variety LORENZO); assay: Root growth assay, seed treatment, maize; assay type: in vivo; conditions: Root Growth of 100 is set as the standard, wet root weight 16 (±2) days post treatment
Description: as §1, §2

melting point [°C] | SMILES | Root Growth ([1]; 1 g a.i./ha) | Root Growth ([1]; 10 g a.i./ha) | Root Growth ([1]; 100 g a.i./ha) | Root Growth ([2]; 1 g a.i./ha) | Root Growth ([2]; 10 g a.i./ha) | Root Growth ([2]; 100 g a.i./ha)
 | O=C1NC(=O)C(c2c[nH]c3ccccc23)=C1c1c[nH]c2ccccc12 [Compound 1, 3,4-Di-(1H-indol-3-yl)pyrrole-2,5-dione] | 69 | 129 | 133 |  |  | 
187 | O=C1NC(=O)C(c2ccccc2)=C1Nc1cccc(Cl)c1 [Compound 1.1, 3-(3-Chlorophenylamino)-4-phenylpyrrole-2,5-dione] |  |  |  |  |  | 
242 | O=C1NC(=O)C(c2ccccc2)=C1Nc1ccc(Cl)c(Cl)c1 [Compound 1.2, 3-(3,4-dichlorophenylamino)-4-phenylpyrrole-2,5-dione] |  |  |  | 130 | 117 | 141
206 | O=C1NC(=O)C(c2ccccc2)=C1Nc1ccc(OC(F)(F)F)cc1 [Compound 1.6, 3-Phenyl-4-(4-trifluoromethoxyphenylamino)pyrrole-2,5-dione] |  |  |  |  |  | 
 | O=C1NC(=O)C(c2ccccc2C(F)(F)F)=C1Nc1ccc(O)c(Cl)c1 [Compound 1.8] |  |  |  | 114 | 144 | 123
 | O=C1NC(=O)C(c2cc(Cl)sc2Cl)=C1Nc1ccc(O)c(Cl)c1 [Compound 1.10] | 101 | 134 | 77 |  |  | 
 | O=C1NC(=O)C(c2ccc(Cl)cc2)=C1Nc1ccc(O)c(C(=O)O)c1 [Compound 1.12] |  |  |  | 122 | 172 | 199
 | Cc1ccc(NC2=C(c3ccc(Br)cc3)C(=O)NC2=O)cc1Cl [Compound 1.16] | 84 | 171 | 129 | 113 | 112 | 158
 | O=C1NC(=O)C(c2ccc(Cl)cc2)=C1Nc1ccc(C(=O)O)cc1 [Compound 1.19] | 148 | 183 | 91 |  |  | 
 | O=C1NC(=O)C(c2c(Cl)cccc2Cl)=C1Nc1cccc(Cl)c1 [Compound 1.20] |  |  |  | 142 | 114 | 125
 | CN(C)CCCn1cc(C2=C(c3c[nH]c4ccccc34)C(=O)NC2=O)c2ccccc21 [Compound 8] | 122 | 150 | 123 | 109 | 150 | 93
 | Cn1cc(C2=C(c3cn(CCCN)c4ccccc34)C(=O)NC2=O)c2ccccc21 [Compound 11] | 162 | 169 | 135 |  |  | 
 | Cn1cc(C2=C(c3c4n(c5ccccc35)CCC(CN)C4)C(=O)NC2=O)c2ccccc21 (stereo not drawn) [Compound 12] | 126 | 150 | 141 |  |  | 

Source: patent US20100152044A1, “Plant growth regulation” (Bayer CropScience GmbH, priority 2004, published 2010)
